According to patent publication US10463644B2, “Uses of sesquiterpene lactone compounds and their derivatives in drugs preparation” (ACCENDATECH, priority 2013, dated 2019):
Read-outs that look alike come from different tables or passages of the source.

How the values were obtained:
cancer cells = experiment: Survival rate of cancer cells after test compound is added (flow cytometry, Annexin V-FITC/PI, clinical specimen); format: cell-based, patient; settings: Homo sapiens, 18 h, read-out: Survival rate (%) All cells (Stem cells and ordinary cells)
Outline: (§1)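 Mononuclear cells from fresh or cryopreserved clinical samples, isolated by Ficoll gradient and held in serum-free IMDM (1×10^6/mL), received compound for 18 h. After labelling with marker antibodies (CD34+CD38+ for AML), Annexin V-FITC and PI staining was analysed by flow cytometry.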

[1] = tested on: PGE2 secreted by synoviocyte; experiment: Content of PGE2 in culture supernatant of synoviocyte of RA model rats given test compound; format: in vivo; settings: rat RA model, dose 30 mg/kg.2d; normal control 8.34 ± 1.29, NaCl 32.44 ± 10.32
Outline: (§2)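 Rat RA model; dosing 30 mg/kg.2d; normal and NaCl control groups. Synoviocyte culture supernatant collected; TNF-α and PGE2 measured by one established method, IL-1β by a separate method.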

cancer stem cells = experiment: Survival rate of cancer stem cells after test compound is added (flow cytometry, Annexin V-FITC/PI, clinical specimen); format: cell-based, patient; settings: Homo sapiens, 18 h
Outline: as §1

[2] = tested on: IL-1β secreted by synoviocyte; experiment: Content of IL-1β in culture supernatant of synoviocyte of RA model rats given test compound; format: in vivo; settings: rat RA model, dose 30 mg/kg.2d; normal control 0.16 ± 0.034, NaCl 0.49 ± 0.136
Outline: as §2

[3] = tested on: TNF-α secreted by synoviocyte; experiment: Content of TNF-α in culture supernatant of synoviocyte of RA model rats given test compound; format: in vivo; settings: rat RA model, dose 30 mg/kg.2d; normal control 0.38 ± 0.027, NaCl 0.74 ± 0.098
Outline: as §2

[4] = Head and neck squamous cell carcinomas

## C=C1CC[C@H]2C(=C)CC[C@H]3C(=C)C(=O)O[C@@H]3[C@@H]12 [Compound 25]
Cancer cells; AML
  viability at 10 µM: 47%
  viability at 20 µM: 44%
Cancer cells; Brain glioma
  viability at 10 µM: 74%
  viability at 20 µM: 58%
Cancer cells; Brain tumor
  viability at 10 µM: 83%
  viability at 20 µM: 73%
Cancer cells; Breast cancer
  viability at 10 µM: 74%
  viability at 20 µM: 65%
Cancer cells; CLL
  viability at 10 µM: 57%
  viability at 20 µM: 45%
Cancer cells; CML
  viability at 10 µM: 64%
  viability at 20 µM: 49%
Cancer cells; Children hepatoblastoma
  viability at 10 µM: 53%
  viability at 20 µM: 47%
Cancer cells; Colon adenocarcinoma
  viability at 10 µM: 55%
  viability at 20 µM: 49%
Cancer cells; Colorectal cancer
  viability at 10 µM: 76%
  viability at 20 µM: 66%
Cancer cells; Gastric cancer
  viability at 10 µM: 54%
  viability at 20 µM: 47%
Cancer cells; Gastrointestinal tumor
  viability at 10 µM: 63%
  viability at 20 µM: 52%
Cancer cells; Glioma
  viability at 10 µM: 83%
  viability at 20 µM: 74%
Cancer cells; [4]
  viability at 10 µM: 67%
  viability at 20 µM: 58%
Cancer cells; Laryngeal cancer
  viability at 10 µM: 74%
  viability at 20 µM: 64%
Cancer cells; Liver cancer
  viability at 10 µM: 65%
  viability at 20 µM: 54%
Cancer cells; Lung adenocarcinoma
  viability at 10 µM: 57%
  viability at 20 µM: 46%
Cancer cells; Lung cancer
  viability at 10 µM: 54%
  viability at 20 µM: 37%
Cancer cells; Malignant melanoma
  viability at 10 µM: 81%
  viability at 20 µM: 66%
Cancer cells; Nasopharynx cancer
  viability at 10 µM: 54%
  viability at 20 µM: 48%
Cancer cells; Ovarian cancer
  viability at 10 µM: 76%
  viability at 20 µM: 67%
Cancer cells; Pancreatic cancer
  viability at 10 µM: 64%
  viability at 20 µM: 48%
Cancer cells; Prostate cancer
  viability at 10 µM: 56%
  viability at 20 µM: 44%
Cancer cells; Retinoblastoma
  viability at 10 µM: 64%
  viability at 20 µM: 54%
Cancer cells; Skin cancer
  viability at 10 µM: 66%
  viability at 20 µM: 58%
[1]
  Content of PGE2 in culture supernatant of synoviocyte (x ± s): 26.48 ± 2.57 ng/mL
Cancer stem cells; AML
  viability at 10 µM: 35%
  viability at 20 µM: 26%
Cancer stem cells; Brain glioma
  viability at 10 µM: 62%
  viability at 20 µM: 47%
Cancer stem cells; Brain tumor
  viability at 10 µM: 72%
  viability at 20 µM: 66%
Cancer stem cells; Breast cancer
  viability at 10 µM: 66%
  viability at 20 µM: 52%
Cancer stem cells; CLL
  viability at 10 µM: 46%
  viability at 20 µM: 34%
Cancer stem cells; CML
  viability at 10 µM: 57%
  viability at 20 µM: 36%
Cancer stem cells; Children hepatoblastoma
  viability at 10 µM: 44%
  viability at 20 µM: 39%
Cancer stem cells; Colon adenocarcinoma
  viability at 10 µM: 42%
  viability at 20 µM: 35%
Cancer stem cells; Colorectal cancer
  viability at 10 µM: 62%
  viability at 20 µM: 55%
Cancer stem cells; Gastric cancer
  viability at 10 µM: 43%
  viability at 20 µM: 37%
Cancer stem cells; Gastrointestinal tumor
  viability at 10 µM: 54%
  viability at 20 µM: 44%
Cancer stem cells; Glioma
  viability at 10 µM: 71%
  viability at 20 µM: 65%
Cancer stem cells; [4]
  viability at 10 µM: 56%
  viability at 20 µM: 47%
Cancer stem cells; Laryngeal cancer
  viability at 10 µM: 64%
  viability at 20 µM: 53%
Cancer stem cells; Liver cancer
  viability at 10 µM: 52%
  viability at 20 µM: 46%
Cancer stem cells; Lung adenocarcinoma
  viability at 10 µM: 46%
  viability at 20 µM: 34%
Cancer stem cells; Lung cancer
  viability at 10 µM: 42%
  viability at 20 µM: 29%
Cancer stem cells; Malignant melanoma
  viability at 10 µM: 62%
  viability at 20 µM: 54%
Cancer stem cells; Nasopharynx cancer
  viability at 10 µM: 45%
  viability at 20 µM: 37%
Cancer stem cells; Ovarian cancer
  viability at 10 µM: 64%
  viability at 20 µM: 55%
Cancer stem cells; Pancreatic cancer
  viability at 10 µM: 54%
  viability at 20 µM: 36%
Cancer stem cells; Prostate cancer
  viability at 10 µM: 44%
  viability at 20 µM: 31%
Cancer stem cells; Retinoblastoma
  viability at 10 µM: 55%
  viability at 20 µM: 34%
Cancer stem cells; Skin cancer
  viability at 10 µM: 55%
  viability at 20 µM: 43%
[2]
  Content of IL-1β in culture supernatant of synoviocyte (x ± s): 0.39 ± 0.067 ng/mL
[3]
  Content of TNF-α in culture supernatant of synoviocyte (x ± s): 0.58 ± 0.056 ng/mL
